# Values quoted from earlier work as cited in US12636273B2, “Compositions for pathogenesis-directed therapy and treatments of skin diseases and disorders” (YALE UNIVERSITY, priority 2019, dated 2026).
# Test system: CHILD syndrome skin lesions
# Conditions: topical application
smiles,measurement,value
CC(C)CCC[C@@H](C)[C@H]1CC[C@H]2[C@@H]3CC=C4C[C@@H](O)CC[C@]4(C)[C@H]3CC[C@]12C [cholesterol],effect on skin lesions / phenotype,did not correct the phenotype
